Experiments:
[1] = molecular target: T1, Dual specificity protein kinase CLK1 (Homo sapiens, UniProt P49759); experiment: Inhibition of CLK1 (unknown origin) by NanoBRET cellular target engagement assay
[2] = molecular target: T2, Dual specificity protein kinase CLK2 (Homo sapiens, UniProt P49760); experiment: Inhibition of CLK2 (unknown origin) by NanoBRET cellular target engagement assay
[3] = molecular target: T3, Dual specificity protein kinase CLK3 (Homo sapiens, UniProt P49761); experiment: Inhibition of CLK3 (unknown origin) by NanoBRET cellular target engagement assay
[4] = molecular target: T4, Dual specificity protein kinase CLK4 (Homo sapiens, UniProt Q9HAZ1); experiment: Inhibition of CLK4 (unknown origin) by NanoBRET cellular target engagement assay
[5] = molecular target: T5, Dual specificity tyrosine-phosphorylation-regulated kinase 2 (Homo sapiens, UniProt Q92630); experiment: Inhibition of DYRK2 (unknown origin) by NanoBRET cellular target engagement assay
T5 sequence (Q92630 whole entry): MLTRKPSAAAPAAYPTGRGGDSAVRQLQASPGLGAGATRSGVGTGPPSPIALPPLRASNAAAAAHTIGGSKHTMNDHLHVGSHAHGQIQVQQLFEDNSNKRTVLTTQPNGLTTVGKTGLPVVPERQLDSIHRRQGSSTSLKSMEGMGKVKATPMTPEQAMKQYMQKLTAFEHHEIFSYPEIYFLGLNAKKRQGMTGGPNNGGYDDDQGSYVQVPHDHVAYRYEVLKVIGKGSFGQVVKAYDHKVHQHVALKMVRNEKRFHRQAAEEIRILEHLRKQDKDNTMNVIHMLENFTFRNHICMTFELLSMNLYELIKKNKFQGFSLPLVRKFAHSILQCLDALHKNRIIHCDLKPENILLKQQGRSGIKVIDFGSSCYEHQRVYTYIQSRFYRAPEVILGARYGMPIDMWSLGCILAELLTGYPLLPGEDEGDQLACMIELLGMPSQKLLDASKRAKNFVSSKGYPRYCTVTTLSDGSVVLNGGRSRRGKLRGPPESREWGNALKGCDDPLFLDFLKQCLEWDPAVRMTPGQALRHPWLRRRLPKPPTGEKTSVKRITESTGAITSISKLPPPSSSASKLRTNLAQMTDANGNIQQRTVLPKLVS

[6] = molecular target: Mitogen-activated protein kinase kinase kinase 9 (Homo sapiens, UniProt P80192); experiment: Inhibition of MLK1 (unknown origin) by NanoBRET cellular target engagement assay
[7] = molecular target: Mitogen-activated protein kinase kinase kinase 10 (Homo sapiens, UniProt Q02779); experiment: Inhibition of MLK2 (unknown origin) by NanoBRET cellular target engagement assay
[8] = molecular target: T1, Dual specificity protein kinase CLK1; experiment: Inhibition of human recombinant CLK1 using ERMRPRKRQGSVR substrate by radiometric scintillation assay
[9] = molecular target: T2, Dual specificity protein kinase CLK2; experiment: Inhibition of human recombinant CLK2 using YRRAAVPPSPSLSR substrate by radiometric scintillation assay
[10] = molecular target: T3, Dual specificity protein kinase CLK3; experiment: Inhibition of human full length recombinant CLK3 using ERMRPRKRQGSVR substrate by radiometric scintillation assay
[11] = molecular target: T4, Dual specificity protein kinase CLK4; experiment: Inhibition of human recombinant CLK4 using YRRAAVPPSPSLS substrate by radiometric scintillation assay
[12] = molecular target: T6, Dual specificity tyrosine-phosphorylation-regulated kinase 1A (Homo sapiens, UniProt Q13627); experiment: Inhibition of human full length recombinant DYRK1A using RRRFRPASPLRGPP substrate by radiometric scintillation assay
[13] = molecular target: T7, Dual specificity tyrosine-phosphorylation-regulated kinase 1B (Homo sapiens, UniProt Q9Y463); experiment: Inhibition of human full length recombinant DYRK1B using RRRFRPASPLRGPP substrate by radiometric scintillation assay
[14] = molecular target: T5, Dual specificity tyrosine-phosphorylation-regulated kinase 2; experiment: Inhibition of human full length recombinant DYRK2 using casein substrate by radiometric scintillation assay
[15] = molecular target: T8, Homeodomain-interacting protein kinase 1 (Homo sapiens, UniProt Q86Z02); experiment: Inhibition of human recombinant HIPK1 using myelin substrate by radiometric scintillation assay
[16] = molecular target: T9, Homeodomain-interacting protein kinase 2 (Homo sapiens, UniProt Q9H2X6); experiment: Inhibition of human recombinant HIPK2 using myelin substrate by radiometric scintillation assay
[17] = molecular target: T10, Homeodomain-interacting protein kinase 3 (Homo sapiens, UniProt Q9H422); experiment: Inhibition of human recombinant HIPK3 using myelin substrate by radiometric scintillation assay
[18] = molecular target: T6, Dual specificity tyrosine-phosphorylation-regulated kinase 1A; experiment: Inhibition of DYRK1A (unknown origin) by NanoBRET cellular target engagement assay
[19] = molecular target: T7, Dual specificity tyrosine-phosphorylation-regulated kinase 1B; experiment: Inhibition of DYRK1B (unknown origin) by NanoBRET cellular target engagement assay
[20] = molecular target: Mitogen-activated protein kinase kinase kinase 11 (Homo sapiens, UniProt Q16584); experiment: Inhibition of MLK3 (unknown origin) by NanoBRET cellular target engagement assay
[21] = molecular target: Cyclin-dependent kinase-like 3 (Homo sapiens, UniProt Q8IVW4); experiment: Inhibition of CDKL3 (unknown origin) by NanoBRET cellular target engagement assay
[22] = molecular target: T9, Homeodomain-interacting protein kinase 2; experiment: Inhibition of HIPK2 (unknown origin)
[23] = molecular target: T10, Homeodomain-interacting protein kinase 3; experiment: Inhibition of HIPK3 (unknown origin)
[24] = molecular target: T9, Homeodomain-interacting protein kinase 2; experiment: Inhibition of HIPK2 (unknown origin) by selectscreen kinase assay
[25] = molecular target: T8, Homeodomain-interacting protein kinase 1; experiment: Inhibition of HIPK1 (unknown origin)
[26] = molecular target: T11, Homeodomain-interacting protein kinase 4 (Homo sapiens, UniProt Q8NE63); experiment: Inhibition of HIPK4 (unknown origin)
T11 sequence (Q8NE63 whole entry): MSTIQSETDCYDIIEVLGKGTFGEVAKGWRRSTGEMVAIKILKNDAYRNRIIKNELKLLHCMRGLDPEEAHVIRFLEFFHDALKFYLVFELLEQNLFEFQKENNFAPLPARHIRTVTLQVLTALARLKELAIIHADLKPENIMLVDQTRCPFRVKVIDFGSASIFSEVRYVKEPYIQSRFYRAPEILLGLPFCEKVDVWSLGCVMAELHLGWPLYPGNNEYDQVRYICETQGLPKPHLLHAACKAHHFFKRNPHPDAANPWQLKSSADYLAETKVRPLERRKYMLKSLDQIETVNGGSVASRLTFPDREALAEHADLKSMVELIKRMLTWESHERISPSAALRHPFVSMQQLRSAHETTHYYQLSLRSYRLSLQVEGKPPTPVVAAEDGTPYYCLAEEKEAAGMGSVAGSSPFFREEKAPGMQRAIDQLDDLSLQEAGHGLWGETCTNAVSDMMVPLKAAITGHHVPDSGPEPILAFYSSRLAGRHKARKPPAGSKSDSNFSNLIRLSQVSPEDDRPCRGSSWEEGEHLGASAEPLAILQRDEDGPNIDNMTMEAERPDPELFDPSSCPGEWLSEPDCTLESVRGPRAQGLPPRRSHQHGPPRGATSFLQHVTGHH

T4 sequence (Q9HAZ1 whole entry): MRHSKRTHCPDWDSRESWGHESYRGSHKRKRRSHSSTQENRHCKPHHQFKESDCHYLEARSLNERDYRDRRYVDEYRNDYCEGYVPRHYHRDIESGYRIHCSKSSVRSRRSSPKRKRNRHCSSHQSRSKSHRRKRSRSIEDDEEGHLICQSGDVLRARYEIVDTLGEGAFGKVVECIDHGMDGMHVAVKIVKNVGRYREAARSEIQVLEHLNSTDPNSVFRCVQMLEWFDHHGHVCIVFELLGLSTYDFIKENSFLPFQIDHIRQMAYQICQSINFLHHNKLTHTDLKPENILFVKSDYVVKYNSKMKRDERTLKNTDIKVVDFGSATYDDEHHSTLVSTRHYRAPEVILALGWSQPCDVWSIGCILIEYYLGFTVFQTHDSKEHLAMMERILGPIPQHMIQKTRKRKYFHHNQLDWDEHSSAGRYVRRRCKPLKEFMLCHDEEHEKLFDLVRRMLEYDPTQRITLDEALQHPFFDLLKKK
T9 sequence (Q9H2X6 whole entry): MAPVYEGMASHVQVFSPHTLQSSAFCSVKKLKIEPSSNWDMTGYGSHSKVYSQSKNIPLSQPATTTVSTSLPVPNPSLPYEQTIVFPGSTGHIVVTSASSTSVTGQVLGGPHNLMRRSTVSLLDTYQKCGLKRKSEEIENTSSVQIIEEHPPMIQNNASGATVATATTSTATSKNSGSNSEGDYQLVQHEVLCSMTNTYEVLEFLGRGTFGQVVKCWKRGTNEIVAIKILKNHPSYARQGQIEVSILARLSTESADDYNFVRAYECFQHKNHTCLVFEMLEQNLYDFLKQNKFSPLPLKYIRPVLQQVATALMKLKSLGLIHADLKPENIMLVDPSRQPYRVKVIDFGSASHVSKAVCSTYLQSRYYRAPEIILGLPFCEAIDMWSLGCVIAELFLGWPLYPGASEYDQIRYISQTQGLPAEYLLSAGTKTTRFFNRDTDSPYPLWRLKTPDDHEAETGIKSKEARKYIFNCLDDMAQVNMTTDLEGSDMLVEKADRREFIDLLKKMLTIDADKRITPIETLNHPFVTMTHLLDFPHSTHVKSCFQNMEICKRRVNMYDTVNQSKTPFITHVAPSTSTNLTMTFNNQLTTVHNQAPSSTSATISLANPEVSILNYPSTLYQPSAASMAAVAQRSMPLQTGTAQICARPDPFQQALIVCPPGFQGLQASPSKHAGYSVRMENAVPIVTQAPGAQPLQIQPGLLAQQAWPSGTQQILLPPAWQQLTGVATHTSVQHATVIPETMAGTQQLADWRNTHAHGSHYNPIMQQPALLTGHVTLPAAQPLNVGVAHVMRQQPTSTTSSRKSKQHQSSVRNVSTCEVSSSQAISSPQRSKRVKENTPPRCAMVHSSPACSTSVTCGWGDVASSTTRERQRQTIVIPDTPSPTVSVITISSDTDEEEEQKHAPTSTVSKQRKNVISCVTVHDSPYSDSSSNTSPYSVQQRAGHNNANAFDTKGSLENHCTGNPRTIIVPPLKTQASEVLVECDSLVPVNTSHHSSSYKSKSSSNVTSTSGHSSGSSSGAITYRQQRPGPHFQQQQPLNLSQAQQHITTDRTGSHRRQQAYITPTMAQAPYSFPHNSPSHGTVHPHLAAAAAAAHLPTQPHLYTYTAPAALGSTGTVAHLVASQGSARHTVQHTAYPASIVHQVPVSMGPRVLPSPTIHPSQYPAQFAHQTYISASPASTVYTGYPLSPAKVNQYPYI
T2 sequence (P49760 whole entry): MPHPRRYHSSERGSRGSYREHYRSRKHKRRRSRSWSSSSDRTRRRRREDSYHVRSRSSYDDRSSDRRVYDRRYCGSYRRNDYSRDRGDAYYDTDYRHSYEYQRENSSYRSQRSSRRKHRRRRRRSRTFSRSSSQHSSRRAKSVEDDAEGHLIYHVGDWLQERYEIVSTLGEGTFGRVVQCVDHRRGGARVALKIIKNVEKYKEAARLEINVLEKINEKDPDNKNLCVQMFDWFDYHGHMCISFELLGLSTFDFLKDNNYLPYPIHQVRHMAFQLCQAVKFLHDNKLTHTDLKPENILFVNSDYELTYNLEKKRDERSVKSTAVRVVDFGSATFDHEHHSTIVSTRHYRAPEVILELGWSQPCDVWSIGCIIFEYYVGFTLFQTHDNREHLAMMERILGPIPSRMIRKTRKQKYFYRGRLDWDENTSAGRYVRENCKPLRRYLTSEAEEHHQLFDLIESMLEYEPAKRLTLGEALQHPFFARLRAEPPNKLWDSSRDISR
Chain of Cyclin-dependent kinase-like 3 (Q8IVW4 whole entry): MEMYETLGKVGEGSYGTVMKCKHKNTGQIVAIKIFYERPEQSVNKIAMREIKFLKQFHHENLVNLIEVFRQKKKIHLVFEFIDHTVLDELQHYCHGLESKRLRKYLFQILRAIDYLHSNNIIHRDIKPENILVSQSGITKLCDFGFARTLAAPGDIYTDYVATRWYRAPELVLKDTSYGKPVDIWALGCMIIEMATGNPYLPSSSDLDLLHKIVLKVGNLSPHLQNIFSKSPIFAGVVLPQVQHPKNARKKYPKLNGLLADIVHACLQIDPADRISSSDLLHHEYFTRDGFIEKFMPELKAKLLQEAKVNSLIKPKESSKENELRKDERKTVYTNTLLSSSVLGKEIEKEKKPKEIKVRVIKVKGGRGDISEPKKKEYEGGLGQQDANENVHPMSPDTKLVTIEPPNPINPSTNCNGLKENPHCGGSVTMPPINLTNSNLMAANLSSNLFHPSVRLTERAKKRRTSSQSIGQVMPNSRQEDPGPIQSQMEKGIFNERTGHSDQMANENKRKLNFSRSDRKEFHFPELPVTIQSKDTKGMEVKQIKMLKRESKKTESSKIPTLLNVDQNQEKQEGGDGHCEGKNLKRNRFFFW
T3 sequence (P49761 whole entry): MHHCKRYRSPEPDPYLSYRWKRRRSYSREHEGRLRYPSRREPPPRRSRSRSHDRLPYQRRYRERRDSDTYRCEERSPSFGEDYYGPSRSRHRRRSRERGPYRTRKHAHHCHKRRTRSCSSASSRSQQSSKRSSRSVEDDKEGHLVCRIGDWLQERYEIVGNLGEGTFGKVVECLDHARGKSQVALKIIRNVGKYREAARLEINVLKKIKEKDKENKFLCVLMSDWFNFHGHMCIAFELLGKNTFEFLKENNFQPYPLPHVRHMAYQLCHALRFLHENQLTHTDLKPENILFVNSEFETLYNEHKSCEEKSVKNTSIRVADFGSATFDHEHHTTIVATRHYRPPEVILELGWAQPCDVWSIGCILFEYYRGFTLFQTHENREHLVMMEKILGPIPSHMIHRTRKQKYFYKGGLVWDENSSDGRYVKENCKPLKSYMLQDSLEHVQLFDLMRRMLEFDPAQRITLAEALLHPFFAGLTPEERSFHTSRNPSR
T8 sequence (Q86Z02 whole entry): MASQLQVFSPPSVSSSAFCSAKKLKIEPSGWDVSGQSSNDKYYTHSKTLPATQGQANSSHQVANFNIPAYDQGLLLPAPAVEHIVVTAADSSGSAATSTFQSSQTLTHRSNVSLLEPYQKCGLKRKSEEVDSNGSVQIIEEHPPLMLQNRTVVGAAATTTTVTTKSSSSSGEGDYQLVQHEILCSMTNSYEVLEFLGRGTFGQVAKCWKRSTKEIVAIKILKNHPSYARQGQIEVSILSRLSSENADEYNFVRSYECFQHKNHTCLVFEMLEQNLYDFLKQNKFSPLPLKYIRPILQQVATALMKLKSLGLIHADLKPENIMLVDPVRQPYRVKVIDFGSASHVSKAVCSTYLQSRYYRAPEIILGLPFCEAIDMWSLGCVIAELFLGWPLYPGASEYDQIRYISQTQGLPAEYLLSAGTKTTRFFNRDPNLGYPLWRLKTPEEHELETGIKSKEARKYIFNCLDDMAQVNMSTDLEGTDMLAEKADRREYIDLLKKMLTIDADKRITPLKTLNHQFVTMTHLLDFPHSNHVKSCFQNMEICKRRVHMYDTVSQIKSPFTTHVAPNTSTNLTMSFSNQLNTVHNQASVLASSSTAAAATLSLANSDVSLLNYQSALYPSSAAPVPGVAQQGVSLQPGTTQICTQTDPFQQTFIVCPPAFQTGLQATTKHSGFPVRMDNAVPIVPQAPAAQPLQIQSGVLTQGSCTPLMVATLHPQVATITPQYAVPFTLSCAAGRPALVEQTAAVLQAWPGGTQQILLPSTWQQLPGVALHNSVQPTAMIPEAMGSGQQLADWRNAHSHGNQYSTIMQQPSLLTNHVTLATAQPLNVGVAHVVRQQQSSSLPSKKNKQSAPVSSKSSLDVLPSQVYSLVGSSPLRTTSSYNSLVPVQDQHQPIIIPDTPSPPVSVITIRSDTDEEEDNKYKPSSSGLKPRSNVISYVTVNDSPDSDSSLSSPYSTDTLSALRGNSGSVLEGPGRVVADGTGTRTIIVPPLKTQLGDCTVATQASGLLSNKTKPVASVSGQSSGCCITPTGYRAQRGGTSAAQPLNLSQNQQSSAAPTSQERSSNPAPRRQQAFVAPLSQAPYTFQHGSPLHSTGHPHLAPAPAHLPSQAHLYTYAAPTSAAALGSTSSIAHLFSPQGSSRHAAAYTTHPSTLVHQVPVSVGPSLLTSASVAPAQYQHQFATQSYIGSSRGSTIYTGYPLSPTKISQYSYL
T1 sequence (P49759 whole entry): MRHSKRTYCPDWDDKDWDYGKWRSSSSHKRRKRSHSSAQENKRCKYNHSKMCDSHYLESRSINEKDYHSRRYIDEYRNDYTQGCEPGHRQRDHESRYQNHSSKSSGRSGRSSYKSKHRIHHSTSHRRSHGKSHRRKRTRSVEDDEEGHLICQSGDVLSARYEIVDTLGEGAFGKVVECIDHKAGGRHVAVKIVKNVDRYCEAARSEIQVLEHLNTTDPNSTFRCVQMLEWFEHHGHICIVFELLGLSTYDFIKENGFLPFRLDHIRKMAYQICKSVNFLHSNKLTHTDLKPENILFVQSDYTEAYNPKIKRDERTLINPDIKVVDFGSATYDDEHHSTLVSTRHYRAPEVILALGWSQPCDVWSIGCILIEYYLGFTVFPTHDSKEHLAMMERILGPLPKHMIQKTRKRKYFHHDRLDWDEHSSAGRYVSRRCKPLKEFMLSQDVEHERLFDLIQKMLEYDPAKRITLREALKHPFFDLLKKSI

## COC(=N)c1nc2ccc3ncnc(Nc4ccc(OC)cc4F)c3c2s1
[1]
  IC50: > 3 µM
[2]
  IC50: > 3 µM
[3]
  IC50: > 3 µM
[4]
  IC50: > 3 µM
[5]
  IC50: > 3 µM
[6]
  IC50: > 3 µM
[7]
  IC50: > 3 µM

## CC(C)(C)c1ccc(-c2coc3ccc(-c4cn[nH]n4)nc23)cc1
[1]
  IC50: > 50 µM
[8]
  IC50: > 3 µM
[9]
  IC50: > 3 µM
[10]
  IC50: > 3 µM
[11]
  IC50: > 3 µM
[12]
  IC50: > 3 µM
[13]
  IC50: > 3 µM
[14]
  IC50: > 3 µM
[15]
  IC50: 0.285 µM
[16]
  IC50: 0.123 µM
[17]
  IC50: 0.283 µM
[2]
  IC50: > 50 µM
[3]
  IC50: > 50 µM
[4]
  IC50: 40 µM
[18]
  IC50: > 50 µM
[19]
  IC50: > 50 µM
[5]
  IC50: > 50 µM
[6]
  IC50: 15 µM
[7]
  IC50: > 50 µM
[20]
  IC50: > 50 µM
[21]
  IC50: > 50 µM

## COc1cc2c(Oc3ccc(NC(=O)C4(C(=O)Nc5ccc(F)cc5)CC4)cc3F)ccnc2cc1OCCCN1CCOCC1 [FORETINIB]
[22]
  IC50: 0.1 µM
[23]
  IC50: 0.1 µM

## O=C1NC(=O)/C(=C\c2c[nH]c(=O)c(-c3ccc(N4CCNCC4)nc3)c2)S1
[24]
  IC50: 0.074 µM

## CC(C)(C)c1ccc(-c2coc3ccc(-c4cn[nH]c4)nc23)cc1
[1]
  IC50: > 50 µM
[8]
  IC50: 0.946 µM
[9]
  IC50: 1.43 µM
[10]
  IC50: > 3 µM
[11]
  IC50: 1.47 µM
[12]
  IC50: > 3 µM
[13]
  IC50: > 3 µM
[14]
  IC50: > 3 µM
[15]
  IC50: 0.248 µM
[16]
  IC50: 0.119 µM
[17]
  IC50: 0.476 µM
[2]
  IC50: 18 µM
[3]
  IC50: 43 µM
[4]
  IC50: 46 µM
[18]
  IC50: 43 µM
[19]
  IC50: > 50 µM
[5]
  IC50: > 50 µM
[6]
  IC50: > 50 µM
[7]
  IC50: > 50 µM
[20]
  IC50: > 50 µM
[21]
  IC50: > 50 µM

## Cc1[nH]c(/C=C2\C(=O)Nc3ccc(S(=O)(=O)Cc4c(Cl)cccc4Cl)cc32)c(C)c1C(=O)N1CCC[C@@H]1CN1CCCC1 [PHA-665752]
[25]
  IC50: 0.1 µM
[23]
  IC50: 0.1 µM
[26]
  IC50: 0.1 µM

## O=C(Nc1c[nH]nc1-c1nc2cc(CN3CCOCC3)ccc2[nH]1)NC1CC1 [AT-9283]
[5]
  IC50: 0.57 µM
[21]
  IC50: 1.1 µM

## CN(C)C[C@@H]1CCn2cc(c3ccccc32)C2=C(C(=O)NC2=O)c2cn(c3ccccc23)CCO1 [RUBOXISTAURIN]
[23]
  IC50: 0.1 µM

From ChEMBL document CHEMBL4732242 (Eur J Med Chem, 2021)
